Reference: patent US20030088061A1, “Materials and methods to modulate ligand binding/enzymatic activity of alpha/beta proteins containing an allosteric regulatory site” (priority 2000, published 2003)
Like-named read-outs stand apart in the source and are kept apart here.

Target: T1, αEβ7 (Homo sapiens, UniProt P26010+P38570)
T1 construct: DNA encoding full-length alpha E was identified as follows; expressed in transfected cells; host or cells: JY cells, plasmid pMHneo/aE
T1 sequence (P38570 19-1179): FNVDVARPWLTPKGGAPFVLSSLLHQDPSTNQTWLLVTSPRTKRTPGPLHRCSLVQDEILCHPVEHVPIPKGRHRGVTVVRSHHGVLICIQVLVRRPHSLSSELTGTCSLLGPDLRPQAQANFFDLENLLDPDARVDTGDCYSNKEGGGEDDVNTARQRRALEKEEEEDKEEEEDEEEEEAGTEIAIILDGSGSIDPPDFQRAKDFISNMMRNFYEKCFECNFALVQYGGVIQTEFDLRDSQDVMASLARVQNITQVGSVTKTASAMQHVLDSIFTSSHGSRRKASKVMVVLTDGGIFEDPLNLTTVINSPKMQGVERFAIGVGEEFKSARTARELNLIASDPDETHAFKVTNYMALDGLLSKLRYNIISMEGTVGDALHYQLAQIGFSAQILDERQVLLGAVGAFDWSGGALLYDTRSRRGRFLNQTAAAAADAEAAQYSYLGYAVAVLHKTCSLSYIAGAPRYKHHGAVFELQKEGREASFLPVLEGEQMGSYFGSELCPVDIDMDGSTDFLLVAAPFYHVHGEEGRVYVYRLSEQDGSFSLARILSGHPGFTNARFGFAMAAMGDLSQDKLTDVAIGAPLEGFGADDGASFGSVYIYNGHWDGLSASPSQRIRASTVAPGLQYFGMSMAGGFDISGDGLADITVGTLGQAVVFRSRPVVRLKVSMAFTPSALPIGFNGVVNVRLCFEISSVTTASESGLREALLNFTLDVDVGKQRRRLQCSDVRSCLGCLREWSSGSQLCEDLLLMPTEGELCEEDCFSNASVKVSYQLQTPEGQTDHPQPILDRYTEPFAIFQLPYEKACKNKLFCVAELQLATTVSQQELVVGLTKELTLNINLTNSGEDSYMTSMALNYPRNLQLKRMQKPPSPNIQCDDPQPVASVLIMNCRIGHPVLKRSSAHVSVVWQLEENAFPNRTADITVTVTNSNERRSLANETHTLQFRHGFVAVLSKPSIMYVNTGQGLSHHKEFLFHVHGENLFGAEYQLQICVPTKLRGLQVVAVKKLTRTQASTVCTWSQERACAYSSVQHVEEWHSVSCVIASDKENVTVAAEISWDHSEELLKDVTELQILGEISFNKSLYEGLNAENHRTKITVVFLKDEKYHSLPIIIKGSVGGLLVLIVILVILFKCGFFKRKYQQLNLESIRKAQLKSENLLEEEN
T1 sequence (P26010 20-798 partner): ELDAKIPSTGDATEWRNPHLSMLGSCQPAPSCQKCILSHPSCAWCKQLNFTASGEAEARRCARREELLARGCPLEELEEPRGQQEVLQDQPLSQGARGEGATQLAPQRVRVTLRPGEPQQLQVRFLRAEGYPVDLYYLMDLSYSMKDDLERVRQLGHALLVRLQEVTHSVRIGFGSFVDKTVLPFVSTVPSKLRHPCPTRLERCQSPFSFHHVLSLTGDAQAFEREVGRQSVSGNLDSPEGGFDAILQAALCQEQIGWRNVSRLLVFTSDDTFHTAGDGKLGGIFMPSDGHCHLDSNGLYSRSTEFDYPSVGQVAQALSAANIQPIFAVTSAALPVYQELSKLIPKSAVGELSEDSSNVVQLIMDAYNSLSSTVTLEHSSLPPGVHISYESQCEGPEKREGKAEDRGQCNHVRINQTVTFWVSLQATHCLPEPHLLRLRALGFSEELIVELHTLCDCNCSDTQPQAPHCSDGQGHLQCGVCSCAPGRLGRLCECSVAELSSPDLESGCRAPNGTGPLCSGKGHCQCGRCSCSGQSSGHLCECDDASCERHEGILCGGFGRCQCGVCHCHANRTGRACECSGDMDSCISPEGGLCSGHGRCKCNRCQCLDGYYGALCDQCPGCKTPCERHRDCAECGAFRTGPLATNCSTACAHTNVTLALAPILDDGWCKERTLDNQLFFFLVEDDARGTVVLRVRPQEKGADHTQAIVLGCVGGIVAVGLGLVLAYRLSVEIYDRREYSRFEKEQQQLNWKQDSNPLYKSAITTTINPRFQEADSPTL
Assay: JY/aE+ cell adhesion to E-cadherin/Ig
Assay type: cell-based
Experimental: Adhesion media (350 μl) (RPMI 1640 containing penicillin and streptomycin, L-glutamine, NaPy, and 5% FBS) was aliquotted into each well in rows A, C, E, G of a deepwell 96-well titer plate, 2.0 ml capacity (Beckman Instruments, Inc., Fullerton, Calif.) in columns 1-11. All compounds to be screened were dissolved in DMSO to a final concentration of 10 mM. Compounds were stored at −20° C., and thawed on the day of use in a 37° C. incubator. Each compound (2.1 μl) was pipetted into a single well in columns 3-11, rows A, C, E, and G in the deepwell titer plate. To wells not containing compound (A1 & A2, C1 & C2, E1 & E2, G1 & G2), 2.1 μl DMSO was added. An anti-β7 monoclonal antibody, FIB504 (ATCC, Rockville, Md.), which blocks αEβ7 binding activity, was added to wells C2 and G2 at a concentration of 7.5 μg/ml. Each deepwell titer plate was covered to prevent dessication and stored in a 37° C. incubator until ready for use.
Adhesion assays were performed in 96-well Immunlon 4 plates (Dynex Technologies, Inc., Chantilly, Va.) as follows. Each well was coated with 50 μl E-cadherin/Ig (3.0 μg/ml) in D-PBS. Control wells were coated with capture antibody FIB504, to quantitate 100% input cell binding, or coating buffer alone to determine background binding. Following an overnight incubation at 4° C., the plates were washed three times with 200 μl/well D-PBS and blocked with 1% BSA in D-PBS for at least 1 hour. The BSA solution was removed and 100 μl of adhesion media (RPMI 1640 containing penicillin and stretomycin, L-glutamine, sodium pyruvate, 0.1% BSA, and 60 ng/ml PMA), was added to rows B through G, columns 1 through 11.
At this point, 100 μl adhesion media containing a test compound at a concentration of 60 μM, was transferred from the deepwell 96-well titer plate, in triplicate, to the E-cadherin/Ig coated adhesion plate. The outer rows were filled with 300 μl of D-PBS. These plates were transferred to a humidified 37° C. incubator with an atmosphere of 5% CO2.
The adhesion assay was initiated by addition of 100 μl of the JY/aE^+ cell suspension to each well of the E-cadherin-coated plate. The final volume in each well was 300 μl adhesion media containing […], PMA (final concentration 20 ng/ml), and the test compound (final concentration 20 μM). The plates were incubated at 37° C. for 30 min. Each compound was tested in triplicate.
Adherent cells were fixed by the addition of 50 μl of a 14% glutaraldehyde solution in D-PBS. Plates were washed with water, stained with 100 μl/well 0.5% crystal violet (Sigma Corp., St. Louis, Mo.) solution for 5 min. Three hundred microliters/well of 70% ethanol was added, and adherent cells were quantitated by determining absorbance at 570 nm. Percentage of cell binding was determined by using the mean values for each triplicate in a given assay in the following formula. [formula]
During the initial screening of test compounds, each chemical entity was tested in cell-based adhesion assays at a fixed concentration of 20 μM. Those compounds that blocked JY/αEβ7-dependent adhesion to E-cadherin/Ig by 50% or more were subsequently retested at multiple concentrations to determine the inhibitory concentration at which cell binding is reduced by 50%, i.e., the IC50 value.
For each IC50 assay, 50 μl of the ligand diluted in 50 mM bicarbonate buffer (pH 9.6) was dispensed per well of an Immulon-4 plate. A single plate was used to test two different ligands, each in triplicate, The coating concentration for the various ligands was as follows: VCAM-1/Ig at 2.0 μg/ml; ICAM-1/Ig at 5.0 μg/ml; vitronectin at 0.5 μg/ml; MAdCAM-1/Ig at 3.0 μg/ml, and iC3b at 5.0 μg/ml. The capture antibody, e.g. anti-CD18 monoclonal antibody TS1/22, was added at a concentration of 10 μg/ml in 50 μl/well. Ligand-coated plates were covered and stored overnight at 4° C. The following day, the contents of each well was decanted, and each plate was washed three times with 200 μl/well D-PBS. […]

[1] = PMA-treated JY cells, read-out: E-cadher αEβ7 IC50
[2] = reproducible inhibitory activity on re-analysis, read-out: IC50, inhibition of JY/aE+ binding to E-cadherin

## CC(=O)Oc1ccccc1C(=O)n1c(-c2ccccc2)cc2ccccc21 [Cmpd D]
[1]
  IC50: 3 µM
[2]
  IC50: < 10 µM

## O=C(NCc1cccnc1)c1ccccc1C(=O)Nc1sc2ccccc2c1Cl [Cmpd K]
[1]
  IC50: 3 µM
[2]
  IC50: < 10 µM

## Nc1ccc(Sc2ccc(NC(=O)CCc3ccccc3)cc2)c(Cl)c1 [Cmpd W]
[1]
  IC50: 5 µM
[2]
  IC50: < 10 µM

## CC(CN(C)C)NCc1ccccc1Sc1ccc(C(C)(C)C)cc1 (centres unmarked) [Cmpd Z]
[1]
  IC50: 3 µM
[2]
  IC50: < 10 µM
